Measurements published in PMC11438102, “Modulation of cannabinoid receptor 2 alters neuroinflammation and reduces formation of alpha-synuclein aggregates in a rat model of nigral synucleinopathy” (Journal of Neuroinflammation, 2024).

System: pSer129 and total human Asyn in striatum
Assay: Western immunoblot of pSer129 and total human Asyn in striatal lysates
Type: in vivo
Details: rat low cohort, striatum ipsilateral to AAV, 6 mg/kg i.p. daily 7 weeks, vs vehicle
Procedure: Sprague Dawley male rats (16–18 weeks of age, 400–525 g) were purchased from Charles River Laboratories and acclimated to Emory University animal facilities. Rats were pair housed in standard plexiglass cages under normal 12-hr light cycles and handled in accordance with protocols approved by the IACUC of Emory University in Atlanta, GA. Rats were administered unilateral injections of AAV2/5-human wild-type (WT) Asyn at titers of 2.9–4.3 × 10^11 vector genomes (vg)/mL (termed “low cohort”), which was previously shown to not induce nigral neurotoxicity. Thereby, generating a model with overexpression of human WT Asyn and Asyn-mediated neuroinflammation. […]
Striatal tissue from successfully targeted low cohort rats was homogenized in ice-cold TriZOL lysed using the TissueLyser system. […] Total protein concentrations were measured using Pierce BCA Protein Assay Kit and equal amount of protein (10–20 µg) mixed with Laemmli sample buffer were loaded in 4–20% TGX precast gels (Biorad) for gel electrophoresis. […] Revert staining was captured and measured on the Licor Odyssey at 700 nm for 30 s.
Non-specific protein binding was blocked with 5% milk and 0.1% Tween-20 in TBS for 1 h at room temperature, and membranes incubated with primary antibodies overnight at 4°C. […] The density of the band was quantified using StudioLite software. […]

O=C(c1ccccc1)c1cc(O)c(-c2cc(Cl)cc(Cl)c2)c(O)c1 [SMM-189]
pS129 levels in striatum, western: reduced
total human Asyn levels in striatum, western: no differences
